# Results taken from patent US20190358345A1, “A[…]-IN[…] NANOPARTICLES AND PREPARATION METHODS THEREFOR” (CHINA PHARMACEUTICAL UNIVERSITY, priority 2017, published 2019).
# Test: Dynamic light scattering of nanoparticles
# Type: physicochemical
# Settings: self-assembled in aqueous solution
# Procedure: The foregoing amphiphilic nonsteroid anti-inflammatory platinum is dissolved in DMF, dropped into an aqueous solution at room temperature, and the DMF is removed by dialysis to obtain an amphiphilic nonsteroid anti-inflammatory platinum nanoparticle solution. The dynamic light scattering results of the antitumor cisplatin-tonifamic acid nanoparticles prepared in this embodiment are shown in FIG. 3, and the means particle size of the nanoparticles is 157 nm.
# CDDP (150 mg), AgNO3 (113 mg), tolfenamic acid (131 mg) and Na2CO3 (35.3 mg) are added to a round-bottom flask, then 10 ml of water is added and stirred at room temperature for 24 h in a dark place. The AgCl precipitate is centrifugally discarded, and the filtrate is dried in vacuum. The crude product is purified by silica gel column chromatography using an eluent of methanol:chloroform=1:9 to obtain the cisplatin-tolfenamic acid-based complex in a yield of 53%. The chemical structure of the complex synthesized in this embodiment is as shown in Formula 1. […]
smiles,measurement,value
"Cc1c(Cl)cccc1[N]1c2ccccc2C(=O)[O][Pt]1([NH2])[NH2] [Embodiment 1, cisplatin-tolfenamic acid-based complex]",means particle size of the nanoparticles,157 nm
